# Laboratory results as given in BindingDB's records for doi:10.1021/jm050513m (The University of Texas At Houston, 2005).
# Numbered stars: 1 amine (or outer) side, 2 acyl side, 3 side chain; on linkers, the order of the positions; unused ones are H or OH. Square brackets hold non-standard residues; d marks the D form. Peptide text beside a SMILES is read from it. * marks the point of attachment. ξ: configuration not given here. pY = N[C@@H](Cc1ccc(OP(=O)(O)O)cc1)C(=O)O; X3 = O=C(CN1CCN([*:1])CC1)[*:2]; NMeL = CN[C@@H](CC(C)C)C(=O)O; Thr(3ξ) = CC(O)[C@H](N)C(=O)O; αMeP = C[C@@]1(C(=O)O)CCCN1; Pip = O=C(O)[C@@H]1CCCCN1; Ac6c = NC1(C(=O)O)CCCCC1; Inp = O=C(O)C1CCNCC1; Ahx = NCCCCCC(=O)O; NEt2 = CCN(CC)*
# Molecular target: Signal transducer and activator of transcription 3 (Mus musculus, UniProt P42227)
# Sequence (P42227 whole entry): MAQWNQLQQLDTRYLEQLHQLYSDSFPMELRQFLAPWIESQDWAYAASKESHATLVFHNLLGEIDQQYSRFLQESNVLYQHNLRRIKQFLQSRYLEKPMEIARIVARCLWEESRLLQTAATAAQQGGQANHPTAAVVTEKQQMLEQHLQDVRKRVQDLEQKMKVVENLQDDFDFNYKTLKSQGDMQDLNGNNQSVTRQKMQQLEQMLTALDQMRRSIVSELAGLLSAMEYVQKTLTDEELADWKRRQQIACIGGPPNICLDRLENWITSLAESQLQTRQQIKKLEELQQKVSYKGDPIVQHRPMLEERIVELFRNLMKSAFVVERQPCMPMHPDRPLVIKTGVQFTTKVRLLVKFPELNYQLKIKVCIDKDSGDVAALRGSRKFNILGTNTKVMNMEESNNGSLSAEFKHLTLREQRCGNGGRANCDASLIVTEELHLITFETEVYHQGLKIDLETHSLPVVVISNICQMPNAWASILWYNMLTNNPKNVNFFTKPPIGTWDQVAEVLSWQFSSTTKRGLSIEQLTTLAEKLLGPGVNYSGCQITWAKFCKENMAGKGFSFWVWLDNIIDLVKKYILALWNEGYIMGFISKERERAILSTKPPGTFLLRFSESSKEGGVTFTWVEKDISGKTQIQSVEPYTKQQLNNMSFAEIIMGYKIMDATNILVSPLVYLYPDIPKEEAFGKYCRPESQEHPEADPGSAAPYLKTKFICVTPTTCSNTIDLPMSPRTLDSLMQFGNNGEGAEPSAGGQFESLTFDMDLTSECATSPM
# Experiment: Fluorescence Polarization Assay
# Details: not given
# Experimental: Fluorescence polarization (FP) binding assay is utilizing the intrinsic property of the fluorescent probe, which will have low polarization value when free in solution. On binding to a target, the polarization of the probe will increase. Reaction mixtures of full length STAT3 alpha and the probe were placed in wells of a 96-well microtiter plate. The test peptide solution was added to each well. Fluorescence polarization was then read in a Tecan Polarian plate reader. The IC50 values were obtained from nonlinear regression analysis in the one-site competition mode. Peptides were assayed three times using three separate Stat3-probe preparations. IC50 values are reported as the mean of three IC50 values +/- the standard deviation.
row,SMILES,IC50 [µM]
1,CNC(=O)[C@H](CCC(N)=O)NC(=O)[C@@H]1CCCN1C(=O)[C@H](CC(C)C)NC(=O)[C@H](Cc1ccc(OP(=O)(O)O)cc1)NC(C)=O [4-[(2S)-2-{[(2S)-1-[(2S)-2-{[(1S)-3-carbamoyl-1-(methylcarbamoyl)propyl]carbamoyl}pyrrolidin-1-yl]-4-methyl-1-oxopentan-2-yl]carbamoyl}-2-acetamidoethyl]phenoxyphosphonic acid] (Ac-[pY]LPQ-NHMe),0.882
2,CC(=O)N[C@@H](Cc1ccc(OP(=O)(O)O)cc1)C(=O)N[C@@H](CC(C)C)C(=O)N1CCC[C@H]1C(=O)N[C@@H](CCC(N)=O)C(=O)O [(2S)-4-carbamoyl-2-{[(2S)-1-[(2S)-2-[(2S)-2-acetamido-3-[4-(phosphonooxy)phenyl]propanamido]-4-methylpentanoyl]pyrrolidin-2-yl]formamido}butanoic acid] (Ac-[pY]LPQ-OH),0.748
3,CC(=O)N[C@@H](Cc1ccc(OP(=O)(O)O)cc1)C(=O)N[C@@H](CC(C)C)C(=O)N1CCC[C@H]1C(=O)NCCCCCC(N)=O [4-[(2S)-2-{[(2S)-1-[(2S)-2-[(5-carbamoylpentyl)carbamoyl]pyrrolidin-1-yl]-4-methyl-1-oxopentan-2-yl]carbamoyl}-2-acetamidoethyl]phenoxyphosphonic acid] (Ac-[pY]LP[Ahx]-NH2),9.78

# Now from value to molecule:
row,IC50 [µM],SMILES
1,1.4,CC(=O)N[C@@H](Cc1ccc(OP(=O)(O)O)cc1)C(=O)N[C@@H](CC(C)C)C(=O)N1CCC[C@H]1C(=O)N1CCN(CC(N)=O)CC1 [4-[(2S)-2-{[(2S)-1-[(2S)-2-{[4-(carbamoylmethyl)piperazin-1-yl]carbonyl}pyrrolidin-1-yl]-4-methyl-1-oxopentan-2-yl]carbamoyl}-2-acetamidoethyl]phenoxyphosphonic acid]
2,4.22,CCN(CC)C(=O)[C@H](CCC(N)=O)NC(=O)[C@@H]1CCCN1C(=O)[C@H](CC(C)C)NC(=O)[C@H](Cc1ccc(OP(=O)(O)O)cc1)NC(C)=O [4-[(2S)-2-{[(2S)-1-[(2S)-2-{[(1S)-3-carbamoyl-1-(diethylcarbamoyl)propyl]carbamoyl}pyrrolidin-1-yl]-4-methyl-1-oxopentan-2-yl]carbamoyl}-2-acetamidoethyl]phenoxyphosphonic acid] (Ac-[pY]LPQ-NEt2)

# Same assay, conditions: pH 7.5; 22 °C
row,SMILES,IC50 [µM]
1,"CC(=O)N[C@@H](Cc1ccc(OP(=O)(O)O)cc1)C(=O)N[C@@H](CC(C)C)C(=O)N1CCC(C(=O)N[C@@H](CCC(N)=O)C(=O)N[C@H](C(N)=O)C(C)O)CC1 (stereo partly drawn) [4-[(2S)-2-{[(2S)-1-(4-{[(1S)-3-carbamoyl-1-{[(1S,2S)-1-carbamoyl-2-hydroxypropyl]carbamoyl}propyl]carbamoyl}piperidin-1-yl)-4-methyl-1-oxopentan-2-yl]carbamoyl}-2-acetamidoethyl]phenoxyphosphonic acid] (Ac-[pY]L[Inp]Q[Thr(3ξ)]-NH2)",34.6
2,"CC(=O)N[C@@H](Cc1ccc(OP(=O)(O)O)cc1)C(=O)N[C@@H](CC(C)C)C(=O)NC1(C(=O)N[C@@H](CCC(N)=O)C(=O)N[C@H](C(N)=O)C(C)O)CCCCC1 (stereo partly drawn) [4-[(2S)-2-{[(1S)-1-[(1-{[(1S)-3-carbamoyl-1-{[(1S,2S)-1-carbamoyl-2-hydroxypropyl]carbamoyl}propyl]carbamoyl}cyclohexyl)carbamoyl]-3-methylbutyl]carbamoyl}-2-acetamidoethyl]phenoxyphosphonic acid] (Ac-[pY]L[Ac6c]Q[Thr(3ξ)]-NH2)",13.4
3,"CC(=O)N[C@@H](Cc1ccc(OP(=O)(O)O)cc1)C(=O)N[C@@H](CC(C)C)C(=O)N1CCN(CC(=O)N[C@@H](CCC(N)=O)C(=O)N[C@H](C(N)=O)C(C)O)CC1 (stereo partly drawn) [4-[(2S)-2-{[(2S)-1-[4-({[(1S)-3-carbamoyl-1-{[(1S,2S)-1-carbamoyl-2-hydroxypropyl]carbamoyl}propyl]carbamoyl}methyl)piperazin-1-yl]-4-methyl-1-oxopentan-2-yl]carbamoyl}-2-acetamidoethyl]phenoxyphosphonic acid] (Ac-[pY]L[X3]Q[Thr(3ξ)]-NH2)",57.1
4,"CC(=O)N[C@@H](Cc1ccc(OP(=O)(O)O)cc1)C(=O)N[C@@H](CC(C)C)C(=O)N1CCC[C@@H]1C(=O)N[C@@H](CCC(N)=O)C(=O)N[C@H](C(N)=O)C(C)O (stereo partly drawn) [4-[(2S)-2-{[(2S)-1-[(2R)-2-{[(1S)-3-carbamoyl-1-{[(1S,2S)-1-carbamoyl-2-hydroxypropyl]carbamoyl}propyl]carbamoyl}pyrrolidin-1-yl]-4-methyl-1-oxopentan-2-yl]carbamoyl}-2-acetamidoethyl]phenoxyphosphonic acid]",> 100

# More lines, now with the values ahead:
row,IC50 [µM],SMILES
1,> 100,"CC(=O)N[C@@H](Cc1ccc(OP(=O)(O)O)cc1)C(=O)N(C)[C@@H](CC(C)C)C(=O)N1CCC[C@H]1C(=O)N[C@@H](CCC(N)=O)C(=O)N[C@H](C(N)=O)C(C)O (stereo partly drawn) [4-[(2S)-2-{[(2S)-1-[(2S)-2-{[(1S)-3-carbamoyl-1-{[(1S,2S)-1-carbamoyl-2-hydroxypropyl]carbamoyl}propyl]carbamoyl}pyrrolidin-1-yl]-4-methyl-1-oxopentan-2-yl](methyl)carbamoyl}-2-acetamidoethyl]phenoxyphosphonic acid] (Ac-[pY][NMeL]PQ[Thr(3ξ)]-NH2)"
2,1.87,"CC(=O)N[C@@H](Cc1ccc(OP(=O)(O)O)cc1)C(=O)N[C@@H](CC(C)C)C(=O)N1CCC[C@@]1(C)C(=O)N[C@@H](CCC(N)=O)C(=O)N[C@H](C(N)=O)C(C)O (stereo partly drawn) [4-[(2S)-2-{[(2S)-1-[(2S)-2-{[(1S)-3-carbamoyl-1-{[(1S,2S)-1-carbamoyl-2-hydroxypropyl]carbamoyl}propyl]carbamoyl}-2-methylpyrrolidin-1-yl]-4-methyl-1-oxopentan-2-yl]carbamoyl}-2-acetamidoethyl]phenoxyphosphonic acid] (Ac-[pY]L[αMeP]Q[Thr(3ξ)]-NH2)"
3,18.1,"CNC(=O)CC[C@H](NC(=O)[C@@H]1CCCN1C(=O)[C@H](CC(C)C)NC(=O)[C@H](Cc1ccc(OP(=O)(O)O)cc1)NC(C)=O)C(=O)N[C@H](C(N)=O)C(C)O (stereo partly drawn) [4-[(2S)-2-{[(2S)-1-[(2S)-2-{[(1S)-1-{[(1S,2S)-1-carbamoyl-2-hydroxypropyl]carbamoyl}-3-(methylcarbamoyl)propyl]carbamoyl}pyrrolidin-1-yl]-4-methyl-1-oxopentan-2-yl]carbamoyl}-2-acetamidoethyl]phenoxyphosphonic acid] (Ac-[pY]LPE(NHMe)[Thr(3ξ)]-NH2)"
4,1.24,"CC(=O)N[C@@H](Cc1ccc(OP(=O)(O)O)cc1)C(=O)N[C@@H](CC(C)C)C(=O)N1CCCC[C@H]1C(=O)N[C@@H](CCC(N)=O)C(=O)N[C@H](C(N)=O)C(C)O (stereo partly drawn) [4-[(2S)-2-{[(2S)-1-[(2S)-2-{[(1S)-3-carbamoyl-1-{[(1S,2S)-1-carbamoyl-2-hydroxypropyl]carbamoyl}propyl]carbamoyl}piperidin-1-yl]-4-methyl-1-oxopentan-2-yl]carbamoyl}-2-acetamidoethyl]phenoxyphosphonic acid] (Ac-[pY]L[Pip]Q[Thr(3ξ)]-NH2)"
5,80,"CC(=O)N[C@@H](Cc1ccc(OP(=O)(O)O)cc1)C(=O)N[C@@H](CC(C)C)C(=O)N1CCC[C@H]1C(=O)N[C@@H](CCC(=O)N(C)C)C(=O)N[C@H](C(N)=O)C(C)O (stereo partly drawn) [4-[(2S)-2-{[(2S)-1-[(2S)-2-{[(1S)-1-{[(1S,2S)-1-carbamoyl-2-hydroxypropyl]carbamoyl}-3-(dimethylcarbamoyl)propyl]carbamoyl}pyrrolidin-1-yl]-4-methyl-1-oxopentan-2-yl]carbamoyl}-2-acetamidoethyl]phenoxyphosphonic acid] (Ac-[pY]LPE(NMe2)[Thr(3ξ)]-NH2)"
